Assay results: EP0213490A2, “Colour-photographic recording material” (Agfa-Gevaert AG, priority 1985, dated 1987)

Experiments:
[1] = Solubility determination in ethyl acetate (parts by weight of solvent needed to dissolve one part of yellow dye); format: physicochemical; conditions: Ethylacetat, 60°C
Protocol: Von den erfindungsgemäßen Verbindungen II-1, 11-5 und III-1 sowie von den strukturanalogen Vergleichsverbindungen V-1, V-2, V-3, V-4, V-5 und V-6 wurden deren Löslichkeit in Ethylacetat bei 60°C bestimmt. Hierzu wurde ermittelt, wieviele Gewichtsteile Lösungsmittel zum Lösen eines Gewichtsteils Gelbfarbstoff erforderlich sind. Die miteinander zu vergleichenden Farbstoffe unterschieden sich jeweils ausschließlich in der Substitution des Phenylazorestes

[2] = Dissolving the mask coupler in tricresyl phosphate/ethyl acetate for dispersion preparation; format: physicochemical; conditions: 55°C
Protocol: Von der erfindungsgemäßen Verbindung 11-1 wurde die Dispersion la und von der betreffenden Vergleichsverbindung V-2 wurde die Dispersion lb jeweils nach der nachfolgend beschriebenen Vorschrift hergestellt. 100 g Maskenkuppler werden in einer Abmischung aus 100 g Trikresylphosphat und 300 g Ethylacetat bei 55^*C gelöst. […] Die Lösung wird in 1 kg einer 7,5 %igen wäßrigen Gelatine, die ebenfalls auf 55°C erhitzt ist und mit 10 g Alkanol XC versehen war, mit einem hochtourigen Mischer einemulgiert. Anschließend wurde das niedrig siedende Lösungsmittel im Vakuum entfernt und die zurückbleibende Dispersion bei 6°C erstarrt.
Gemäß der im Beispiel 2 beschriebenen allgemeinen Vorschrift wurde aus der erfindungsgemäßen Verbindung 11-5 die Dispersion 2a und aus der betreffenden Vergleichsverbindung V-4 die Dispersion 2b hergestellt. (Die Vergleichsverbindung V-4 mußte, damit sie in Lösung ging, in der hydrophoben Dispersionsphase auf 70°C erhitzt werden).

| Structure (SMILES) | 1 Gew.-Teil Verbindung löst sich in X Gew.-Teilen Ethyl-acetat [1] | Dissolution of 100 g Maskenkuppler in 100 g Trikresylphosphat and 300 g Ethylacetat [2] |
| --- | --- | --- |
| CCCCCCCCCCCCCC(=O)Nc1ccc(Cl)c(NC2=NN(c3c(Cl)cc(Cl)cc3Cl)C(=O)C2N=Nc2ccc(OC(C)C)c(OC(C)C)c2)c1 (centres unmarked) [II-1] | 2,5 Gew.-Teilen Ethyl-acetat |  |
| CCCCCCCCCCCCCC(=O)Nc1ccc(Cl)c(NC2=NN(c3c(Cl)cc(Cl)cc3Cl)C(=O)C2N=Nc2ccc(OC)c(OC)c2)c1 (centres unmarked) [V-1] | 15 Gew.-Teilen Ethyl-acetat |  |
| CCCCCCCCCCCCCC(=O)Nc1ccc(Cl)c(NC2=NN(c3c(Cl)cc(Cl)cc3Cl)C(=O)C2N=Nc2ccc(OCC)c(OCC)c2)c1 (centres unmarked) [V-2] | 19 Gew.-Teilen Ethyl-acetat | mußte neben Ethylacetat noch soviel Tetrahydrofuran zugesetzt werden, daß sie bei 55 °C in Lösung ging |
| CCCCCCCCCCCCCC(=O)Nc1ccc(Cl)c(NC2=NN(c3c(Cl)cc(Cl)cc3Cl)C(=O)C2N=Nc2ccc(OCCC)c(OCCC)c2)c1 (centres unmarked) [V-3] | 23 Gew.-Teilen Ethyl-acetat |  |
